This series is described as follows: gradient 5% acetonitrile 3 min, to 50% in 2 min, to 85% in 15 min, held 3 min, 100 µL/min. Particulars: column: Zorbax Extend-C18 2.1 x 50 mm; eluents: water / acetonitrile, 0.1% formic acid. An outline of the steps: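 A Zorbax Extend-C18 column (2.1 × 50 mm, 1.8 μm) run at 100 μL/min with water and acetonitrile, both containing 0.1% formic acid, separated mixtures of ~100 pure standards. The HPLC was coupled to a quadrupole time-of-flight mass spectrometer operated in positive and negative ionization mode, with dead and dwell volumes of 40 μL and 900 μL. Each retention time was taken from a computationally picked adduct peak that was then manually inspected.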
In turn, `Cc1ccc(C(=O)N2CCN(c3cc(-c4cccs4)[nH]n3)CC2)cc1C` gave an RP-LC retention time of 808 s.

`Cc1ccc(-c2noc(Cn3ncn4nc(-c5ccc(C)cc5C)cc4c3=O)n2)cc1`: the RP-LC retention time worked out at 1270 s.

Regarding `NC1=NCC2c3ccccc3Cc3ccccc3N12` (centres undefined), the RP-LC retention time was found to be 707 s.

For `COc1ccccc1-c1noc(C2CCCN2C(=O)Nc2ccc3c(c2)OCCO3)n1` (centres undefined), the RP-LC retention time was found to be 762 s.

`Fc1cccc(-c2nn3c(CSc4ccccc4)nnc3s2)c1` yielded an RP-LC retention time of 969 s.

`Cc1ccc2nc(-c3ccc(C)c(NC(=O)C4CCCCC4)c3)[nH]c2c1` came in with an RP-LC retention time of 735 s.

Molecule `COc1ccc(Cl)c2c(=O)c3c([nH]c12)CCN(CC(=O)NCc1ccccc1F)C3` gave an RP-LC retention time of 625 s.

Molecule `Cc1ccc(-c2csc(Cc3nc(-c4cccc(F)c4)no3)n2)cc1C` gave an RP-LC retention time of 1360 s.

Molecule `CC(C)c1nnc(C2CN(Cc3ccc(F)c(Cl)c3)CC23CCN(C)CC3)o1` (centres undefined) gave an RP-LC retention time of 591 s.

Molecule `CC(=O)c1ccc(NC(=O)c2nc(N3CCCC3)c3c(C)cc(C)nc3n2)cc1` came in with an RP-LC retention time of 646 s.

With `Cc1cccnc1NC(=O)C1CCN(S(=O)(=O)c2cc(C(=O)N3CCOCC3)cs2)CC1`, the RP-LC retention time came out at 606 s.

`Cc1cc(=O)n(CC(=O)NCc2ccc3c(c2)OCO3)c(-c2ccc(F)cc2)n1`: the RP-LC retention time is 940 s.

The molecule `O=C(Nc1cccc(-c2ccc(N3CCOCC3)nn2)c1)Nc1ccc2c(c1)OCCO2` displayed an RP-LC retention time of 659 s.

`Clc1cc2c(nn1)Nc1ccccc1S2` had an RP-LC retention time of 892 s.

Turning to `O=c1ccc(-c2ccccc2F)nn1Cc1nc(-c2ccc3c(c2)OCO3)no1`, the RP-LC retention time was determined as 944 s.

Molecule `Cc1ccc(Oc2nccnc2SCC(=O)Nc2ccc(C)c(C)c2)cc1` returned an RP-LC retention time of 1140 s.

For `O=C(c1cnn2cccnc12)N1CCCC1c1ccccc1Cl` (centres undefined), the RP-LC retention time was 763 s.

Take `Cc1nn2c(CNS(=O)(=O)Cc3ccccc3Cl)c(-c3ccccc3)nc2s1`: the RP-LC retention time was determined as 919 s.

As to `CC(C)CCN(CC(=O)N1CCNCC1)C(=O)c1cccc(Br)c1`, the RP-LC retention time came to 654 s.

On to `CCC(CN1CCOCC1)NC(=O)c1c2c(cn(-c3ccc(F)cc3)c1=O)C(=O)CC(C)(C)C2` (centres undefined), for which the RP-LC retention time came to 657 s.

Consider `CCn1nc(C)c(CCNC(=O)C2CCCN(C(=O)c3[nH]c(C)cc3C)C2)c1C` (centres undefined), for which the RP-LC retention time was 630 s.

Consider `COc1ccc(C(O)CN2CCN(c3cccc(OC)c3)CC2)cc1` (centres undefined), for which the RP-LC retention time was determined as 647 s.

`Cc1nc(-c2ccc3c(c2)n(CC(=O)N2CCc4ccccc42)c(=O)n3C(C)C)no1` came in with an RP-LC retention time of 922 s.

`O=C(Nc1ccccc1Cl)c1csc(-c2ccc(N3CCCC3)nc2)n1` registered an RP-LC retention time of 878 s.

For the molecule `O=C(NCc1cccc(Br)c1)c1csc(C(=O)N2CCCC2)n1`, the RP-LC retention time is 850 s.

The molecule `Cc1ccc(NC(=O)C2CCN(S(=O)(=O)c3ccc4c(c3)CCCC(=O)N4)CC2)cc1C` displayed an RP-LC retention time of 814 s.

Take `Cc1ccc(CNC(=O)C2CCCN(c3ncnc4c3oc3ccccc34)C2)cc1` (centres undefined): the RP-LC retention time came out at 807 s.

In the case of `O=C1CCCc2cc(S(=O)(=O)N3CCCC(C(=O)N4CCc5ccccc5C4)C3)ccc2N1` (centres undefined), the RP-LC retention time worked out at 792 s.

Turning to `Cc1ccc2nc(C(=O)NCc3cccs3)cn2c1`, the RP-LC retention time amounted to 646 s.

In turn, `O=C(NC1CCCCCC1)C1CCN(c2cc(N3CCSCC3)ncn2)CC1` showed an RP-LC retention time of 710 s.

In turn, `O=C(C1COCC(=O)N1Cc1ccccc1)N1CCN(c2ccc(C(F)(F)F)cn2)CC1` (centres undefined) had an RP-LC retention time of 782 s.

With `COc1ccc(CN2C=C(C(=O)OCc3noc(C)n3)C(C)=NS2(=O)=O)cc1`, the RP-LC retention time is 873 s.

As for `CCn1nnc2c(SCC(=O)Nc3cccc(C(F)(F)F)c3)ncnc21`, the RP-LC retention time is 866 s.

As for `CCOc1ccccc1C(=O)N1CCC2(CC1)NC(=O)c1ccc(Cl)cc1N2`, the RP-LC retention time worked out at 790 s.

Molecule `Cc1sc(NC(=O)c2ccccc2Cl)nc1-c1ccc2c(c1)NC(=O)C(C)O2` (centres undefined) yielded an RP-LC retention time of 914 s.

`CNC(=O)C1CCCN(c2nc3ncn(CC(=O)Nc4ccc(C(=O)OC)cc4)c(=O)c3s2)C1` (centres undefined) had an RP-LC retention time of 649 s.

On to `C[C@H]1CN(S(=O)(=O)c2ccc(F)cc2)C[C@@H]1c1nc(-c2ccccc2)no1`, for which the RP-LC retention time came to 1120 s.

In the case of `Cc1ccc(C)c(NC(=O)Cn2c(=O)n(-c3ccc(F)cc3)c3ncccc32)c1`, the RP-LC retention time worked out at 880 s.

As to `Cc1cccc(NC(=O)C2CCc3sc(C(=O)N(C)C)cc3C2)c1` (centres undefined), the RP-LC retention time was 846 s.

Molecule `COc1ccccc1NC(=O)N1CCN(Cc2nc3cccnc3n2-c2ccccc2)CC1` gave an RP-LC retention time of 661 s.

Molecule `Cc1nc(N2CCOCC2)c2c(C(=O)Nc3ccc(Cl)cc3)c(C)oc2n1` returned an RP-LC retention time of 883 s.

For the molecule `COc1ccc(CSc2ncnc3nc[nH]c23)cc1`, the RP-LC retention time is 654 s.

Molecule `O=C(c1ccoc1)N1CCC2(CC1)N=C(c1ccc(Cl)cc1)NO2` yielded an RP-LC retention time of 774 s.

The molecule `Cc1nnc(NC(=O)CCn2cnc3ccccc3c2=O)s1` showed an RP-LC retention time of 588 s.

Regarding `Cc1ccc(S(=O)(=O)N2CCC(C)(C(=O)NCc3ccccc3)CC2)cc1`, the RP-LC retention time is 932 s.

For `Cn1c(SCC(=O)N2CCCCC2)nnc1-c1ccc2c(c1)OCCCO2`, the RP-LC retention time worked out at 664 s.

`CC(=O)N1CCC(n2c(C)nc(C(=O)N3CCCCC3)c2C)CC1` showed an RP-LC retention time of 559 s.

`CCOc1cc(-c2nc(C3CC(=O)N(c4ccc(Cl)cc4)C3)no2)cc(OCC)c1OCC` (centres undefined) displayed an RP-LC retention time of 1240 s.

`O=C(Cn1cnc2nc3c(cc2c1=O)CCCC3)Nc1ccccc1Cl` registered an RP-LC retention time of 720 s.

Molecule `CC(C)NC(=O)N1CCCC(c2cccc(C(=O)NCc3ccc4c(c3)OCO4)c2)C1` (centres undefined) came in with an RP-LC retention time of 822 s.

Consider `Cc1ccc(-c2noc(-c3ccccc3S(=O)(=O)N3CCC(C)CC3)n2)cc1`, for which the RP-LC retention time worked out at 1280 s.

The molecule `CCOC(=O)C1CCC(CNC(=O)Nc2ccc(-c3nc(-c4ccccc4)co3)cc2)CC1` (centres undefined) yielded an RP-LC retention time of 1100 s.

The molecule `O=C(O)c1[nH]nc2c1COc1ccccc1-2` had an RP-LC retention time of 673 s.

Turning to `Cc1ccc(Cn2c(N3CCCC(C(=O)NCc4ccccc4)C3)nc3ccsc3c2=O)cc1` (centres undefined), the RP-LC retention time turned out to be 958 s.

`Cc1cccc(N2CCN(C(=O)CN3CCN(Cc4ccccc4F)C3=O)CC2)c1`: the RP-LC retention time was 864 s.

`COc1ccc(CC(=O)N2CCCC2c2nc(-c3ccccc3OC)no2)cc1` (centres undefined) gave an RP-LC retention time of 853 s.

In turn, `O=C(Cc1ccccc1Br)NC1CCCN(c2cc(-c3ccccc3)[nH]n2)C1` (centres undefined) showed an RP-LC retention time of 811 s.

In the case of `CC(CNC(=O)C1CCN(C(=O)c2ncn3c2COC(c2ccccc2)C3)CC1)c1ccccc1` (centres undefined), the RP-LC retention time amounted to 826 s.

`O=C1N(C2CCN(Cc3ccccn3)CC2)C(c2ccncc2)C12CCCCC2` (centres undefined) gave an RP-LC retention time of 556 s.

The values are drawn from the METLIN SMRT retention time set (Domingo-Almenara et al. 2019).
